By Ki is commonly meant a measure of affinity in units of concentration, obtained from inhibition or displacement.

Like-named read-outs stand apart in the source and are kept apart here. Where only a bound is given, the exact number is not on record here.

In patent US11596639B2, “Substituted indole Mcl-1 inhibitors” (Vanderbilt University, priority 2016, dated 2023) one finds GI50 and Ki data, which are given here for 13 molecules.

The subject of assay [1] is H929 human cancer cell lines. Put plainly: Cellular viability / proliferation (Cell TiterGlo, 72 h). Type of assay: cell-based. The procedure, abridged:
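Cells were seeded at 1,000 cells/well in medium with 10% FBS and dosed 24 h later with a 2-fold serial dilution of compound (top concentration 50 μM, final DMSO <1%).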
For orientation: In ATP-based viability assays light output follows the ATP content of the culture.

The target in assay [2] is Mcl-1 (Homo sapiens (Human), UniProt Q07820). Put plainly: TR-FRET binding assay, FITC-Bak peptide and MBP-tagged Mcl-1. To be noted: read-out: Ki for Inhibition of Mcl-1 by TR-FRET assay. On the procedure: Compounds are diluted in DMSO in a 16-point, semilog serial dilution scheme. […] The plate was mixed and incubated for 3 hours at room temperature. […] TR-FRET signal is plotted and IC50 and Ki values are calculated in the same manner as the fluorescence polarization anisotropy based competition assays.
Mcl-1, sequence (Q07820 172-327): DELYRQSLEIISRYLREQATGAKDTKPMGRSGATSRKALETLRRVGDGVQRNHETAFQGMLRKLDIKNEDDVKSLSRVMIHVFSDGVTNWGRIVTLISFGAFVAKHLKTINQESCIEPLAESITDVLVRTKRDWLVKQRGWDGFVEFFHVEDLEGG
(In general: TR-FRET usually uses a lanthanide donor and a delayed reading to cut background.)

The mark [3] stands for this setting: Homo sapiens, NCI-H929, 72 h, read-out: GI50 on cellular proliferation of H929 human cancer cell lines, H929 cells, 72 h, Cell TiterGlo, 10% FBS.

For `Cc1cc(C)nc(Cn2c(C(=O)O)cc3cc(C)cc(N4C[C@@H](C)n5c(c(CCCOc6cc(C)c(Cl)c(C)c6)c6ccc(Cl)c(-c7c(C)nn(C)c7C)c65)C4=O)c32)c1` [Example 599, (R)-7-(7-chloro-10-(3-(4-chloro-3,5-dimethylphenoxy)propyl)-4-methyl-1-oxo-6-(1,3,5-trimethyl-1H-pyrazol-4-yl)-3,4-dihydropyrazino[1,2-a]indol-2(1H)-yl)-1-((4,6-dimethylpyridin-2-yl)methyl)-5-methyl-1H-indole-2-carboxylic acid], the GI50 in assay [1] (setting [3]) was below 200 nM. Besides, in assay [2], the Ki is below 0.2 nM.

Turning to `COCc1cc(N2C[C@@H](C)n3c(c(CCCOc4cc(C)c(Cl)c(C)c4)c4ccc(Cl)c(-c5c(C)nn(C)c5C)c43)C2=O)c2c(c1)cc(C(=O)O)n2Cc1ccccn1` [Example 691, (R)-7-(7-chloro-10-(3-(4-chloro-3,5-dimethylphenoxy)propyl)-4-methyl-1-oxo-6-(1,3,5-trimethyl-1H-pyrazol-4-yl)-3,4-dihydropyrazino[1,2-a]indol-2(1H)-yl)-5-(methoxymethyl)-1-(pyridin-2-ylmethyl)-1H-indole-2-carboxylic acid], the GI50 in assay [1] (setting [3]) was below 200 nM. For the same molecule, the Ki in assay [2] was below 0.2 nM.

In the case of `Cc1cc(OCCCc2c3n(c4c(-c5c(C)nn(C)c5C)c(Cl)ccc24)[C@H](C)CN(c2cc(C(=O)O)nc4ccccc24)C3=O)cc(C)c1Cl` [Example 669, (R)-4-(7-chloro-10-(3-(4-chloro-3,5-dimethylphenoxy)propyl)-4-methyl-1-oxo-6-(1,3,5-trimethyl-1H-pyrazol-4-yl)-3,4-dihydropyrazino[1,2-a]indol-2(1H)-yl)quinoline-2-carboxylic acid], the GI50 in assay [1] (setting [3]) was 7600 nM. Moreover, the Ki in assay [2] was determined as 1 nM.

Take `COCCn1cc(N2C[C@@H](C)n3c(c(CCCOc4cc(C)c(Cl)c(C)c4)c4ccc(Cl)c(-c5c(C)nn(C)c5C)c43)C2=O)c2cc(-c3ncccn3)ccc21` [Example 548, (R)-7-Chloro-10-(3-(4-chloro-3,5-dimethylphenoxy)propyl)-2-(1-(2-methoxyethyl)-5-(pyrimidin-2-yl)-1H-indol-3-yl)-4-methyl-6-(1,3,5-trimethyl-1H-pyrazol-4-yl)-3,4-dihydropyrazino[1,2-a]indol-1(2H)-one]: in assay [1] (setting [3]), the GI50 came out at 610 nM. Also, in assay [2], the Ki was 0.94 nM.

For `COCCn1cc(C(=O)O)c2cc(OC)cc(N3C[C@@H](C)n4c(c(CCCOc5cc(C)c(Cl)c(C)c5)c5ccc(Cl)c(-c6c(C)nn(C)c6C)c54)C3=O)c21` (single isomer, unassigned) [Example 673], in assay [1] (read-out: GI50 on cellular proliferation of H929 human cancer cell lines, H929 cells, 72 h, Cell TiterGlo, 10% FBS), the GI50 is 230 nM. In addition, in assay [2], the Ki stood at 0.31 nM.

As to `COCc1cccn2nc(-c3ccc4c(c3)c(N3C[C@@H](C)n5c(c(CCCOc6cc(C)c(Cl)c(C)c6)c6ccc(Cl)c(-c7c(C)nn(C)c7C)c65)C3=O)cn4C)nc12` [Example 695, (R)-7-Chloro-10-(3-(4-chloro-3,5-dimethylphenoxy)propyl)-2-(5-(8-(methoxymethyl)-[1,2,4]triazolo[1,5-a]pyridin-2-yl)-1-methyl-1H-indol-3-yl)-4-methyl-6-(1,3,5-trimethyl-1H-pyrazol-4-yl)-3,4-dihydropyrazino[1,2-a]indol-1(2H)-one], the GI50 in assay [1] (setting [3]) came to 280 nM. For the same molecule, the Ki in assay [2] turned out to be 0.57 nM.

On to `COc1cc(N2C[C@@H](C)n3c(c(CCCOc4cc(C)c(Cl)c(C)c4)c4ccc(Cl)c(-c5c(C)nn(C)c5C)c43)C2=O)c2c(c1)c(C(=O)O)cn2Cc1ccccn1` [Example 605, (R)-7-(7-chloro-10-(3-(4-chloro-3,5-dimethylphenoxy)propyl)-4-methyl-1-oxo-6-(1,3,5-trimethyl-1H-pyrazol-4-yl)-3,4-dihydropyrazino[1,2-a]indol-2(1H)-yl)-5-methoxy-1-(pyridin-2-ylmethyl)-1H-indole-3-carboxylic acid], for which, in assay [1] (setting [3]), the GI50 was determined as 490 nM. For the same molecule, the Ki in assay [2] came out at 0.45 nM.

For `Cc1cc(OCCCc2c3n(c4c(-c5c(C)nn(C)c5C)c(Cl)ccc24)[C@H](C)CN(c2cn(Cc4cscn4)c4ccc(C(=O)O)cc24)C3=O)cc(C)c1Cl` [Example 532, (R)-3-(7-Chloro-10-(3-(4-chloro-3,5-dimethylphenoxy)propyl)-4-methyl-1-oxo-6-(1,3,5-trimethyl-1H-pyrazol-4-yl)-3,4-dihydropyrazino[1,2-a]indol-2(1H)-yl)-1-(thiazol-4-ylmethyl)-1H-indole-5-carboxylic acid], the GI50 in assay [1] (setting [3]) was 390 nM. The Ki in assay [2] came to 0.2 nM.

As for `Cc1cc(OCCCc2c3n(c4c(-c5c(C)nn(C)c5C)c(Cl)ccc24)[C@H](C)CN(c2cc(COCC4COC4)cc4cc(C(=O)O)n(C)c24)C3=O)cc(C)c1Cl` [Example 692, (R)-7-(7-chloro-10-(3-(4-chloro-3,5-dimethylphenoxy)propyl)-4-methyl-1-oxo-6-(1,3,5-trimethyl-1H-pyrazol-4-yl)-3,4-dihydropyrazino[1,2-a]indol-2(1H)-yl)-1-methyl-5-((oxetan-3-ylmethoxy)methyl)-1H-indole-2-carboxylic acid], the GI50 in assay [1] (setting [3]) amounted to 390 nM. Also, the Ki in assay [2] is below 0.2 nM.

Consider `COCCn1cnc(-c2ccc3c(c2)c(N2C[C@@H](C)n4c(c(CCCOc5cc(C)c(Cl)c(C)c5)c5ccc(Cl)c(-c6c(C)nn(C)c6C)c54)C2=O)cn3C)n1` [Example 530, (R)-7-Chloro-10-(3-(4-chloro-3,5-dimethylphenoxy)propyl)-2-(S-(1-(2-methoxyethyl)-1H-1,2,4-triazol-3-yl)-1-methyl-1H-indol-3-yl)-4-methyl-6-(1,3,5-trimethyl-1H-pyrazol-4-yl)-3,4-dihydropyrazino[1,2-a]indol-1(2H)-one], for which, in assay [1] (H929 cells, 72 h, Cell TiterGlo, 10% FBS, read-out: GI50 on cellular proliferation of H929 human cancer cell lines), the GI50 was determined as 230 nM. Besides, the inhibition constant Ki in assay [2] is below 0.2 nM.

On to `COCCn1cc(C(=O)O)c2c(OC)ccc(N3C[C@@H](C)n4c(c(CCCOc5cc(C)c(Cl)c(C)c5)c5ccc(Cl)c(-c6c(C)nn(C)c6C)c54)C3=O)c21` [Example 625, (R)-7-(7-chloro-10-(3-(4-chloro-3,5-dimethylphenoxy)propyl)-4-methyl-1-oxo-6-(1,3,5-trimethyl-1H-pyrazol-4-yl)-3,4-dihydropyrazino[1,2-a]indol-2(1H)-yl)-4-methoxy-1-(2-methoxyethyl)-1H-indole-3-carboxylic acid], for which the GI50 in assay [1] (setting [3]) came to 420 nM. For the same molecule, the inhibition constant (Ki) in assay [2] amounted to 0.22 nM.

On to `Cc1cc(OCCCc2c3n(c4c(-c5c(C)nn(C)c5C)c(Cl)ccc24)[C@H](C)CN(c2cn(CCN4CCCC4)c4ccc(-c5ncccn5)cc24)C3=O)cc(C)c1Cl` [Example 567, (R)-7-Chloro-10-(3-(4-chloro-3,5-dimethylphenoxy)propyl)-4-methyl-2-(5-(pyrimidin-2-yl)-1-(2-(pyrrolidin-1-yl)ethyl)-1H-indol-3-yl)-6-(1,3,5-trimethyl-1H-pyrazol-4-yl)-3,4-dihydropyrazino[1,2-a]indol-1(2H)-one], for which the GI50 in assay [1] (setting [3]) came to 930 nM. The Ki in assay [2] stood at 9.6 nM.

For `Cc1cnc(-n2cnc(-c3ccc4c(c3)c(N3C[C@@H](C)n5c(c(CCCOc6cc(C)c(Cl)c(C)c6)c6ccc(Cl)c(-c7c(C)nn(C)c7C)c65)C3=O)cn4C)n2)nc1` [Example 700, (R)-7-Chloro-10-(3-(4-chloro-3,5-dimethylphenoxy)propyl)-4-methyl-2-(1-methyl-5-(1-(5-methylpyrimidin-2-yl)-1H-1,2,4-triazol-3-yl)-1H-indol-3-yl)-6-(1,3,5-trimethyl-1H-pyrazol-4-yl)-3,4-dihydropyrazino[1,2-a]indol-1(2H)-one], the GI50 in assay [1] (setting [3]) came out at 380 nM. Besides, the Ki in assay [2] was determined as 0.73 nM.
